# From the OPERA property sets (Mansouri et al. 2018)
# Details: not given
Compound,boiling point,melting point,log10 vapour pressure (mmHg),log10 Koc (L/kg),ready biodegradability,log10 Henry constant (atm·m³/mol),log10 Koa,log10 biodegradation half-life (days)
CCOc1cccc(-c2ccccc2)c1,305 °C,35 °C,–,–,–,–,–,–
Clc1ccc(I)cc1,227 °C,57 °C,-1.23,–,–,–,–,–
O=C1CCCCCCCCC1=O,–,40.5 °C,–,–,–,–,–,–
CC(C)(O)CCO,202 °C,–,–,–,–,–,–,–
CC(C)CON=O,67 °C,–,–,–,–,–,–,–
COc1c(Br)cc(Br)cc1Br,298 °C,88 °C,–,–,–,–,–,–
CN(C)C(=O)Nc1cccc(Cl)c1,–,–,–,1.79,–,–,–,–
Nc1ccc(S(=O)(=O)F)cc1,–,68.5 °C,–,–,–,–,–,–
Oc1c(Cl)cc(Cl)c(Cl)c1Cl,–,70 °C,-3.18,3.35,not readily biodegradable,–,–,–
CCCCCCCCCCCCCCCCCC(=O)Cl,–,23 °C,–,–,–,–,–,–
CCC1(c2ccccc2)C(=O)NC(=O)N(C)C1=O (configuration not stated),–,176 °C,–,–,–,–,–,–
CCCCCCC[N+](=O)[O-],194 °C,–,–,–,–,–,–,–
Clc1ccc(Oc2ccccc2)cc1Cl,–,–,-3.19,–,–,–,–,–
Cc1ccn(-c2ccccc2)n1,255 °C,37 °C,–,–,–,–,–,–
CC(C)(C)OC(=O)C(Cl)(Cl)Cl,–,25.5 °C,–,–,–,–,–,–
CC(Cl)(CCl)CCl,162 °C,–,–,–,–,–,–,–
Nc1ccc2c(O)cc(S(=O)(=O)O)cc2c1,–,–,–,–,not readily biodegradable,–,–,–
CCOC(=O)c1c(C)cc(O)cc1O,–,132 °C,–,–,–,–,–,–
O=c1[nH]c(=O)n([C@H]2C[C@H](O)[C@@H](CO)O2)cc1F,–,150 °C,–,–,–,–,–,–
COC(C)=O,56.8 °C,-98 °C,2.33,–,readily biodegradable,-3.94,2.31,–
Clc1ccc(-c2c(Cl)c(Cl)c(Cl)c(Cl)c2Cl)c(Cl)c1,–,–,–,–,–,–,10.5,–
CCCCCC(C)C,118 °C,-109 °C,1.32,–,–,–,–,0.477

Compound,boiling point,melting point,log10 vapour pressure (mmHg),log10 Koc (L/kg),ready biodegradability,log10 Henry constant (atm·m³/mol),log10 Koa,log10 biodegradation half-life (days)
CCOCOC(=O)c1ccccc1Nc1c(Cl)ccc(C)c1Cl,–,73.5 °C,–,–,–,–,–,–
Cc1ccnc(N)c1,–,100 °C,–,–,–,–,–,–
CC(C)Oc1ccccc1,177 °C,-33 °C,–,–,–,–,–,–
CCN(CC)CC(=O)OCC(=O)[C@@]1(O)CC[C@H]2[C@@H]3CCC4=CC(=O)CC[C@]4(C)[C@H]3[C@@H](O)C[C@@]21C,–,162 °C,–,–,–,–,–,–
Cc1cccc(C(=O)O)c1C,–,146 °C,–,–,–,–,–,–
CCCCCCCCc1ccccc1,264 °C,-36 °C,-1.95,–,–,–,–,–
CCCCCCCCC(C(=O)O)C(=O)O,–,116 °C,–,–,–,–,–,–
CC(=O)COC(C)=O,171 °C,–,–,–,–,–,–,–
c1ccc(N2CN(c3ccccc3)CN(c3ccccc3)C2)cc1,–,144 °C,–,–,–,–,–,–
C=C1/C(=C/C=C2/CCC[C@]3(C)[C@@H]([C@H](C)CCCC(C)C)CC[C@@H]23)C[C@@H](O)C[C@@H]1O,–,136 °C,–,–,–,–,–,–
CCC(C)(C)C(C)(C)CC,170 °C,–,–,–,–,–,–,–
Cc1ncc(COP(=O)(O)O)c(C=O)c1O,–,255 °C,–,–,–,–,–,–
c1ccc2c(c1)cc1ccc3cccc4c5ccccc5c2c1c34,–,162 °C,–,–,–,–,–,–
CC1=C(/C=C/C(C)=C/C=C/C(C)=C/C=C/C=C(C)/C=C/C=C(C)/C=C/C2=C(C)C[C@H](O)CC2(C)C)C(C)(C)CCC1,–,160 °C,–,–,–,–,–,–
O=C(O)C(c1ccccc1)c1ccccc1,–,147 °C,–,–,–,–,–,–
Cc1cccc(CCl)c1,196 °C,–,–,–,–,–,–,–
NCCCCCCCCN,225 °C,52 °C,–,–,readily biodegradable,–,–,–
Cc1ccc(S(=O)(=O)N(C)N=O)cc1,–,60 °C,–,–,–,–,–,–
C#C[C@]1(O)CC[C@H]2[C@@H]3CCC4=CC(=O)CC[C@]4(C)[C@H]3CC[C@@]21C,–,272 °C,–,–,–,–,–,–
Cc1cc(C)c(Br)c(C)c1,225 °C,-1 °C,–,–,–,–,–,–
CCOC(=O)C(C)C(=O)OCC,201 °C,–,–,–,–,–,–,–
CC1CCC(C(C)C)C(O)C1 (configuration not stated),–,39 °C,-1.08,–,not readily biodegradable,–,–,–

Compound,boiling point,melting point,log10 vapour pressure (mmHg),log10 Koc (L/kg),ready biodegradability,log10 Henry constant (atm·m³/mol),log10 Koa,log10 biodegradation half-life (days)
ICCCCCI,–,9 °C,–,–,–,–,–,–
COC(=O)CCCCC(=O)O,–,9 °C,–,–,–,–,–,–
CCOC(=O)CCc1ccccc1,247 °C,–,–,–,–,–,–,–
CCCCCCCCCCOc1ccc(C(=O)O)cc1,–,114 °C,–,–,–,–,–,–
Br.CCNCC,–,219 °C,–,–,–,–,–,–
c1ccc(SSc2ccccc2)cc1,310 °C,62 °C,-3.66,–,–,–,–,–
CC1CC(C)NC(C)(C)C1 (configuration not stated),156 °C,–,–,–,–,–,–,–
ClCCCCCCCl,204 °C,–,–,–,–,–,–,–
N#Cc1ccc(N)cc1Cl,–,118 °C,–,–,–,–,–,–
Brc1cccs1,150 °C,–,1.37,–,–,–,–,–
COC(=O)CCO,179 °C,–,–,–,–,–,–,–
CC(=O)N(O)CCCCCNC(=O)CCC(=O)N(O)CCCCCNC(=O)CCC(=O)N(O)CCCCCN,–,140 °C,–,–,–,–,–,–
CCCOC(=O)CC(C)C,156 °C,–,0.413,–,–,–,–,–
O=C(Nc1ccccc1)C(Cl)(Cl)Cl,–,96 °C,–,–,–,–,–,–
O=C(O)C=Cc1cccc(C(F)(F)F)c1,–,136 °C,–,–,–,–,–,–
CN(C)C(=O)c1ccccc1,–,44 °C,–,1.6,–,–,–,–
COc1ccc(/C=C/C(=O)Nc2ccccc2C(=O)O)cc1OC,–,212 °C,–,–,–,–,–,–
CCC(C)(C)C(C)C(C)C (configuration not stated),162 °C,–,–,–,–,–,–,–
CCC(C)(CC(=O)O)CC(=O)O,261 °C,87 °C,–,–,–,–,–,–
COc1cc(OC)n2nc(S(=O)(=O)Nc3c(Cl)ccc(C)c3Cl)nc2n1,–,211 °C,–,–,–,–,–,–
Oc1ccc2[nH]ccc2c1,–,108 °C,–,–,–,–,–,–
Clc1cccc(Cl)n1,211 °C,88 °C,–,–,not readily biodegradable,–,–,–

Compound,boiling point,melting point,log10 vapour pressure (mmHg),log10 Koc (L/kg),ready biodegradability,log10 Henry constant (atm·m³/mol),log10 Koa,log10 biodegradation half-life (days)
CC(=O)C1(O)CCCCC1,126 °C,–,–,–,–,–,–,–
C=CCC1=C(C)C(OC(=O)C2C(C=C(C)C)C2(C)C)CC1=O (configuration not stated),–,-40 °C,-5.92,–,not readily biodegradable,–,–,–
Nc1ccccc1,184 °C,-6 °C,-0.31,1.6,readily biodegradable,-5.69,–,–
CCSCCSCC,217 °C,180 °C,–,–,–,–,–,–
CC(=O)NS(=O)(=O)c1ccc(N)cc1,–,183 °C,–,–,–,–,–,–
Brc1cc(Br)cc(Br)c1,271 °C,123 °C,-2.82,–,–,–,–,–
FC(F)(Cl)C(F)(Cl)Cl,47.7 °C,-35 °C,2.56,–,not readily biodegradable,–,–,–
COc1ccc(C(C)(C)C)cc1,238 °C,–,–,–,–,–,–,–
FC(Cl)CCl (configuration not stated),73.7 °C,-60 °C,–,–,–,–,–,–
Oc1ccc(-c2ccccc2)cc1,305 °C,166 °C,–,–,not readily biodegradable,–,–,–
C[Si](C)(C)Cl,60 °C,-40 °C,2.37,–,–,–,–,–
Nc1ncnc(Nc2ccccc2)n1,–,236 °C,–,–,–,–,–,–
CC(C)=CCC[C@@H](C)[C@H]1CC[C@@]2(C)C3=C(CC[C@]12C)[C@@]1(C)CC[C@H](O)C(C)(C)[C@@H]1CC3,–,140 °C,–,–,–,–,–,–
CCOC(=O)c1c(N)sc2c1CCN(Cc1ccccc1)C2,–,112 °C,–,–,–,–,–,–
CC(C)Oc1ccc(Nc2ccccc2)cc1,–,79 °C,–,–,–,–,–,–
CCOC(=O)CC(=O)C(C)C,173 °C,-9 °C,–,–,–,–,–,–
O=[N+]([O-])c1ccc2c3c(cccc13)CC2,–,100 °C,–,–,–,–,–,–
ON=C(C1CC1)C1CC1,–,76.5 °C,–,–,–,–,–,–
CC(=O)Oc1ccc(Br)cc1C(=O)O,–,60 °C,–,–,–,–,–,–
CO[C@H]1O[C@H](CNC(=O)N(CCCl)N=O)[C@@H](O)[C@H](O)[C@H]1O,–,111 °C,–,–,–,–,–,–
O=C(Cl)c1ccco1,173 °C,-2 °C,–,–,–,–,–,–
CCCCCCCCCCCCCCCCCCCCCC(=O)OC,–,54 °C,–,–,–,–,–,–

Compound,boiling point,melting point,log10 vapour pressure (mmHg),log10 Koc (L/kg),ready biodegradability,log10 Henry constant (atm·m³/mol),log10 Koa,log10 biodegradation half-life (days)
Cc1ccc(S(=O)(=O)Nc2ccccc2C)cc1,–,110 °C,–,–,–,–,–,–
COc1ccc2c3c1O[C@H]1[C@@H](O)C=C[C@H]4[C@@H](C2)[N@@+](C)([O-])CC[C@@]341,–,232 °C,–,–,–,–,–,–
CNC(=O)Oc1ccccc1OC(CCl)OC (configuration not stated),–,80 °C,–,–,–,–,–,–
COc1ccc2c(c1)CC[C@@H]1[C@@H]2CC[C@]2(C)[C@@H](O)[C@H](O)C[C@@H]12,–,159 °C,–,–,–,–,–,–
CCCCC1C(=O)N(c2ccccc2)N(c2ccc(O)cc2)C1=O (configuration not stated),–,96 °C,–,–,–,–,–,–
NS(=O)(=O)c1ccc(S(=O)(=O)CCCO)cc1,–,150 °C,–,–,–,–,–,–
Cc1ccc2c(c1)C(=O)c1ccccc1C2=O,–,177 °C,–,–,–,–,–,–
C=COCCC,65 °C,–,–,–,–,–,–,–
O=C1C=C(c2ccccc2)CC1,234 °C,-23 °C,–,–,–,–,–,–
CCc1ccc(C)o1,118 °C,–,–,–,–,–,–,–
NNC(=O)CCCCC(=O)NN,–,–,–,–,not readily biodegradable,–,–,–
CCC(CC)CC(C)C,134 °C,–,–,–,–,–,–,–
CCCCOC(C)=O,126 °C,–,1.06,–,readily biodegradable,-3.55,3.65,–
C[C@H](NC(=O)c1ccccc1)C(=O)O (racemic),–,166 °C,–,–,–,–,–,–
CNN,87.5 °C,-52.4 °C,1.7,–,not readily biodegradable,–,–,–
Cc1ccc(C)c(C)c1C,205 °C,-6.2 °C,-0.443,–,–,–,–,0.602
Cc1ccccc1C,144 °C,-25.2 °C,0.82,2.25,readily biodegradable,-2.29,3.91,0.778
CCCCCCC(C)N (configuration not stated),165 °C,–,–,–,–,–,–,–
CC(C)CN=C=O,106 °C,–,–,–,–,–,–,–

# Same assay, conditions: fish
Compound,log10 BCF,log10 biotransformation half-life (days)
Oc1c(Cl)cc(Cl)c(Cl)c1Cl,2.3,–
Nc1ccc2c(O)cc(S(=O)(=O)O)cc2c1,0.38,–
CCCCC(CC)COC(=O)c1nc(Cl)c(Cl)c(N)c1Cl (configuration not stated),–,0.45
CCCCCCCCc1ccccc1,–,0.22
CC1CCC(C(C)C)C(O)C1 (configuration not stated),1.03,-1.19
Nc1ccccc1,0.21,-0.78
Brc1cc(Br)cc(Br)c1,3.7,1.65
FC(F)(Cl)C(F)(Cl)Cl,1.7,–
Oc1ccc(-c2ccccc2)cc1,1.59,-0.81
Cc1ccc(C)c(C)c1C,–,1.17
Cc1ccccc1C,1.15,–
